The values that follow come from US20100278932A1, “POLYMER MICELLES CONTAINING SN-38 FOR THE TREATMENT OF CANCER” (Intezyne Technologies, Incorporated, priority 2009, published 2010).

Molecules are shown by their SMILES. Structures can show the parent of a compound that is named as a salt.

The conditions of data set [1]: cited from earlier work.
A short description of data set [2]: Pharmacokinetics in cannulated rats. The class given is in vivo. To be noted: 5 mg/kg (SN-38 equivalent mass) fast IV bolus, SN-38 in plasma, IT-141 of Example 40.
Experimental: Pharmacokinetic data was generated from cannulated rats. […] Each group consisted of three rats.
150 μL of the supernatant was transferred to a HPLC vial for analysis. […] 150 μL of extraction solution was then added and vortexed for an additional 10 minutes. […] 150 μL of the supernatant was transferred to a HPLC vial for analysis. […] The mobile phase was 70% buffer and 30% acetonitrile (buffer=10 mM sodium phosphate with 0.1% triethyl amine adjusted to pH 3.5) flowing at 0.8 mL/min with an 18 minute run time. A calibration curve was constructed from the area under the curve of each of the seven standards and the SN-38 of each of the unknown samples determined from the curve.

Take `CCc1c2c(nc3ccc(O)cc13)-c1cc3c(c(=O)n1C2)COC(=O)[C@]3(O)CC` [SN-38, 7-ethyl-10-hydroxycamptothecin]: in data set [1], the “solubility in aqueous solutions” value is recorded as “exceedingly insoluble”. For the molecule `CCc1c2c(nc3ccc(OC(=O)N4CCC(N5CCCCC5)CC4)cc13)-c1cc3c(c(=O)n1C2)COC(=O)[C@]3(O)CC` [CPT-11, irinotecan hydrochloride], the AUC in data set [2] stood at 0.26 hours*μg SN-38/mL.
